The values below come from patent publication US20100160386A1, “4-PHENOXY-NICOTINE ACID DERIVATIVES AND USE THEREOF AS PPAR-MODULATORS” (BAYER SCHERING PHARMA AKTIENGESELLSCHAFT, priority 2006, published 2010).

pEC50: −log10 of the molar value.

The assay addresses T1, human PPARα-receptor (Homo sapiens, UniProt Q07869).
T1 construct: expressed in transfected cells
T1 sequence (Q07869 167-468): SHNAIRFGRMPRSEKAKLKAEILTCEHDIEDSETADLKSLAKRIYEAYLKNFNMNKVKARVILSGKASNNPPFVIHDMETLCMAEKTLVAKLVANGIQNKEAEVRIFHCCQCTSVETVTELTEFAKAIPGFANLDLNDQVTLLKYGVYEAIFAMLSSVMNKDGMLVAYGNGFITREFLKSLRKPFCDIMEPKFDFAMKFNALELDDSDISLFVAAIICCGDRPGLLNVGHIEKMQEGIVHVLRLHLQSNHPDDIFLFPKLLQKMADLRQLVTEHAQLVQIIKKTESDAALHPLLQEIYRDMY
Briefly: Cellular transactivation assay (GAL4-PPARα chimera, luciferase reporter in CHO cells). As to conditions: CHO cells stably expressing GAL4-PPARα chimera and luciferase reporter; stimulation time 6 h. The format is cell-based. An excerpt:
A cellular assay is used to identify activators of the peroxisome proliferator-activated receptor alpha (PPAR-alpha).
Since mammalian cells contain different endogenous nuclear receptors which can complicate unambiguous interpretation of the results, an established chimera system is used, in which the ligand binding domain of the human PPARα-receptor is fused to the DNA binding domain of the yeast transcription factors GAL4. The GAL4-PPARα chimera thus formed is co-transfected and expressed stably in CHO cells with a reporter construct.
The GAL4-PPARα expression construct contains the ligand binding domain of PPARα (amino acids 167-468), which is PCR-amplified and cloned into the vector pcDNA3.1. This vector already contains the GAL4 DNA binding domain (amino acids 1-147) of the vector pFC2-dbd (Stratagene). The reporter construct, which contains five copies of the GAL4 binding site upstream of a thymidine kinase promoter, leads to the expression of firefly luciferase (Photinus pyralis) after activation and binding of GAL4-PPARα.
The day before the test, CHO (Chinese hamster ovary) cells which stably express the above-described GAL4-PPARα chimera and luciferase reporter gene construct are plated out in 96-hole microtiter plates with 1×10^3 cells in medium (Optimem, GIBCO), 2% activated carbon-purified fetal calf serum (Hyclone), 1.35 mM sodium pyruvate (GIBCO), 0.2% sodium bicarbonate (GIBCO), and kept in a cell incubator (air humidity 96%, 5% v/v CO2, 37° C.). On the day of the test, the substances to be tested are taken up in abovementioned medium, but without addition of calf serum, and added to the cells. After a stimulation time of 6 h, the luciferase activity is measured with the aid of a video camera. The relative light units measured give a sigmoid stimulation curve as a function of the substance concentration. The EC50 values are calculated with the aid of the computer program GraphPad PRISM (Version 3.02).
Broadly, the pEC50 is the negative decadic logarithm of the EC50, by convention in mol/L. A lower pEC50 goes with a high EC50. `COc1ccc(Oc2cc(-c3ccc(C)c(F)c3)ncc2C(=O)O)c(Cl)c1` [Example 9, 4-(2-Chloro-4-methoxyphenoxy)-6-(3-fluoro-4-methylphenyl)nicotinic acid] showed a pEC50 of 6.63.

In turn, `Cc1ccc(-c2cc(Oc3ccccc3Cl)c(C(=O)O)cn2)cc1F` [Example 1, 4-(2-Chlorophenoxy)-6-(3-fluoro-4-methylphenyl)nicotinic acid] had a pEC50 of 7.23.

Compound `COc1ccc(Cl)c(Oc2cc(-c3cc(F)cc(F)c3)ncc2C(=O)O)c1` [Example 7, 4-(2-Chloro-5-methoxyphenoxy)-6-(3,5-difluorophenyl)nicotinic acid] gave a pEC50 of 6.70.
